These results are taken from paper PMC12505967, “Inhibition of the assembly of Plasmodium Hsp70-1 and Hsp40 complex blocks DNA replication by destabilizing ribonucleotide reductase subunit-2” (mBio, 2025).

One assay addresses T1, PfHsp70-1 + PfYdj1 (Plasmodium falciparum, UniProt Q8IB24).
T1 construct: gene PF3D7_0818900; both full length, N-terminal His6 tag (pET28a), E. coli, Ni-NTA; tags kept; with HSP40, subfamily A
In words: EnzChek phosphate ATPase assay. Conditions: inhibits PfYdj1-stimulated ATP hydrolysis; 1 and 20 µM compound (21 µM in figure legend); 50 µM ATP, 2 µM each protein, 2 mM MgCl2, pH 7.5, 37°C. It is filed as biochemical.

The next assay deals with T2, PfHsp70-1 (Plasmodium falciparum, UniProt Q8IB24).
T2 construct: gene PF3D7_0818900; full length, N-terminal His6 tag (pET28a), E. coli Rosetta (DE3), Ni-NTA; tag kept
Type of assay: biochemical. Conditions: basal ATPase without cochaperone; 50 µM ATP, 2 µM protein, 2 mM MgCl2, pH 7.5, 37°C.

Assay [1] addresses Recombinant PfHsp70-1 (His6-tagged, purified) (Plasmodium falciparum 3D7) (UniProt Q8IB24). The note with it: scale: µM min^−1 per µM concentration of the enzyme.

With `CC1=C(C(=O)OCc2ccccc2)C(c2ccc(-c3ccccc3)cc2)NC(=O)N1CCCCCC(=O)O` (stereo not drawn) [116-9e], the “EnzChek phosphate ATPase assay” value at PfHsp70-1 + PfYdj1 is given as “observed a reduced stimulation of PfYdj1-mediated ATP hydrolysis of PfHsp70-1 in a dose-dependent manner”.
Turning to `Nc1ncnc2c1ncn2[C@@H]1O[C@H](COP(=O)(O)OP(=O)(O)OP(=O)(O)O)[C@@H](O)[C@H]1O` [ATP], the “EnzChek phosphate ATPase assay” value at PfHsp70-1 was “PfHsp70-1 showed a basal level of ATPase activity”.

B1: Recombinant PfSis1 (His6-tagged, purified) (natural protein)
chain: MGKDYYSILGVSRDCTTNDLKKAYRKLAMMWHPDKHNDEKSKKEAEEKFKNIAEAYDVLADEEKRKIYDTYGEEGLKGSIPTGGNTYVYSGVDPSELFSRIFGSDGQFSFTSTFDEDFSPFSTFVNMTSRKSRPSTTTNINTNNYNKPATYEVPLSLSLEELYSGCKKKLKITRKRFMGTKSYEDDNYVTIDVKAGWKDGTKITFYGEGDQLSPMAQPGDLVFKVKTKTHDRFLRDANHLIYKCPVPLDKALTGFQFIVKSLDNRDINVRVDDIVTPKSRKIVAKEGMPSSKYPSMKGDLIVEFDIVFPKSLTSEKKKIIRETLANTF
For B1, the PfSis1-induced rate of ATP hydrolysis of PfHsp70-1 without and with 1 µM and 20 µM 116-9e (0.37 without, 0.322 at 1 µM, 0.087 at 20 µM) in assay [1] is 0.37.
